Source: patent US20040053966A1, “Chemical derivatives and their application as antitelomerase agent” (Aventis Pharms S.A., priority 1999, published 2004)

Assays:
A549 cells = experiment: Cytotoxic activity on human tumour line A549 (neutral red); assay type: cell-based; details: Homo sapiens, A549, 96 h, 96 hours incubation, read-out: Cytotox. A549 IC50
Method: The Cytotoxic Biological Activity on Human Tumour Lines is Determined According to the Following Experimental Protocol:
The cells at the exponential growth phase are trypsinized, washed in 1× PBS and are inoculated in 96-well microplates (Costar) in an amount of 4×10^4 cells/ml for A549 and of 1.5×10^4 cells/ml (0.2 ml/well) and then incubated for 96 hours in the presence of variable concentrations of product to be studied (10, 1, 0.1 and 0.01 μg/ml, each point in quadruplicate). 16 hours before the end of the incubation, 0.02% final of neutral red is added to each well. At the end of the incubation, the cells are washed with 1× PBS and lysed with 1% sodium lauryl sulphate. The cellular incorporation of the dye, which reflects cellular growth, is evaluated by spectrophotometry at a wavelength of 540 nm for each sample with the aid of a Dynatech MR5000 reading apparatus.
(compound value−blank value/cell control value−blank value)×100.

[1] = system: human telomerase (HL60 cell extract); experiment: Antitelomerase activity, TRAP (extension of oligonucleotide TS and PCR amplification); assay type: biochemical; details: telomerase extract from HL60 cells
[2] = system: G-quadruplex of oligonucleotide GGGTTAGGGTTAGGGTTAGGG (3.5 repeats of the human telomeric motif); experiment: G-quadruplex stabilizing activity, fluorescence Tm (FAM+DABCYL oligonucleotide); assay type: binding; details: test product 1 μM, oligonucleotide 0.2 μM, 0.1 M LiCl, 10 mM cacodylate pH 7.6; reference without product 44° C.
Source text: The G-quadruplex stabilizing activity may be determined by a method using the formation of a complex with fluorescein of which the experimental protocol is described below. Oligonucleotides […] The oligonucleotide FAM+DABCYL carries the catalogue reference OL-0371-0802. It has the sequence: […] The fluorescein is attached to the 5' end, the DABCYL to the 3' end, by the chemical arms described by Eurogentec. The concentration of the samples is checked by spectrophotometry, recording the absorbance spectrum between 220 and 700 nm and using the molar extinction coefficient provided by the supplier. Buffers All the experiments were carried out in a 10 mM sodium cacodylate buffer pH 7.6 containing 0.1 M lithium chloride (or sodium chloride). The absence of fluorescent contamination in the buffer was checked beforehand. The fluorescent oligonucleotide is added at the final concentration of 0.2 μM. Study of Fluorescence All the measurements of fluorescence were carried out on a Spex Fluorolog DMlB apparatus, using an excitation line width of 1.8 nm and an emission line width of 4.5 nm. The samples are placed in a microquartz cuvette of 0.2×1 cm. The temperature of the sample is controlled by an external water bath. The oligonucleotide alone was analysed at 20, 30, 40, 50, 60, 70 and 80° C. The emission spectra are recorded using an excitation wavelength of 470 nm. The excitation spectra are recorded using either 515 nm or 588 nm as emission wavelength. The spectra are corrected for the response of the instrument by reference curves. A high extinction (80-90%) of the fluorescence of fluorescein at room temperature is observed, in agreement with an intramolecular folding of the oligonucleotide at 20° C. in the form of a G-quadruplex, which induces juxtaposition of its [NT] ends which are respectively linked to fluorescein and to DABCYL. This juxtaposition causes an already-described phenomenon of extinction of fluorescence which is used for “molecular beacons”. Fluorescence Tm: […] The samples are then allowed to incubate for at least 1 hour at 20° C. before each measurement. The use of longer incubation times (up to 24 hours) has no influence on the result obtained. Each experiment allows the measurement of only one sample. The latter is first incubated at an initial temperature of 20° C., heated to 80° C. over 38 minutes, left for 5 minutes at 80° C. and then cooled to 20° C. over 62 minutes. During this time, the fluorescence is measured simultaneously at two emission wavelengths (515 nm and 588 nm) using 470 nm as excitation wavelength. A measurement is carried out every 30 seconds. The temperature of the water bath is recorded in parallel, and the fluorescence profile as a function of the temperature is reconstituted from these values. The fluorescence profiles are then normalized between 20° C. and 80° C., and the temperature for which the intensity of emission at 515 nm is the mean of those at high and low temperature is called Tm. Under these conditions, the Tm of the reference sample without addition of product is 44° C. in a lithium chloride buffer. This temperature is increased to more than 55° C. in a sodium chloride buffer. The addition of a G-quadruplex-stabilizing compound induces an increase in the Tm. This increase is judged to be significant if it is greater than […].

| Structure (SMILES) | IC50 (A549 cells) [µM] | IC50 [1] [µM] | G4 Tm [2] [°C] |
| --- | --- | --- | --- |
| COc1ccc2nccc(Nc3nc(Nc4ccc5nc(C)cc(N)c5c4)nc(SC)n3)c2c1 [Example 18-9] | 9.5 | 3.4 | 51 |
| CSc1nc(Nc2ccc(C#N)cc2)nc(Nc2ccc3nc(C)cc(N)c3c2)n1 [Example 18-7] | 8 | 3.3 | 51 |
